Data set [1] has as its system H9c2 cells. Put plainly: Dox-induced cardiotoxicity model in H9c2 cells, MTT cell viability. The format is cell-based. The procedure: H9c2 cardiomyocytes were cultured in high-glucose DMEM supplemented with 10% FBS and 1% penicillin/streptomycin under a 5% CO2 atmosphere at 37 °C. Cells were seeded at 5 × 10^4 cells/mL in 96-well plates and treated with 1 μM Dox for 24 h. After Dox treatment, cell viability was quantified via MTT assay; 3-(4,5-dimethythiazol-2-yl)-2,5-diphenyltetrazolium bromide (MTT, 5 mg/mL) was applied for 4 h, followed by DMSO dissolution of formazan crystals. Additionally, cells were pretreated with 10 μM SKLB-11A for 24 h prior to 1 μM Dox exposure, and viability was similarly assessed using MTT.

Data set [2] addresses T1, SIRT1 (Homo sapiens, UniProt Q96EB6).
T1 sequence (Q96EB6 1-747): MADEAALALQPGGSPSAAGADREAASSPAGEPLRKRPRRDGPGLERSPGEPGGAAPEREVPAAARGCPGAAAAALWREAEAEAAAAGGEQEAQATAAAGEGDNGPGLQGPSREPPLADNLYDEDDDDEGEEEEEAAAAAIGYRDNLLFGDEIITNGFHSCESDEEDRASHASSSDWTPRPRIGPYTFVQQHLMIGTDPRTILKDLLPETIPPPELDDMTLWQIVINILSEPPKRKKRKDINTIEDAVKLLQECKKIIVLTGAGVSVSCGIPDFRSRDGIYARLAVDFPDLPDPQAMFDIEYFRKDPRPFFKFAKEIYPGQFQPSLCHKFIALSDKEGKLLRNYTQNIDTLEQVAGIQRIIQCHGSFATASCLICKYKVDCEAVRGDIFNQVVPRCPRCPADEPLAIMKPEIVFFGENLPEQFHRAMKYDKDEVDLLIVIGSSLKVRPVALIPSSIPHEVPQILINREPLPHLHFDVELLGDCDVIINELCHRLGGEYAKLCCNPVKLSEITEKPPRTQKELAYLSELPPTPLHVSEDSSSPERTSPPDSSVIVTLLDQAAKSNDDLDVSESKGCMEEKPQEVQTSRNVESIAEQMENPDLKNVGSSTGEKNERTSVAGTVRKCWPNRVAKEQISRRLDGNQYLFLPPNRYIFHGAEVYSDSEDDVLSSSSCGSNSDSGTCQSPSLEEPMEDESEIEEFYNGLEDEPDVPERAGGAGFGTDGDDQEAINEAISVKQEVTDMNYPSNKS
Put plainly: Coupled enzymatic assay, acetylated p53-K381 substrate. The format is biochemical. The note with it: 100 μM. The source says:
Additionally, we used surface plasmon resonance (SPR) to measure the binding of SKLB-11A to immobilized SIRT3. […] We next evaluated the selectivity of SKLB-11A for different SIRT family members. […] We next examined the functional specificity of SKLB-11A using coupled enzymatic assays with isoform-specific, physiologically relevant substrates: acetylated p53-K381 for SIRT1, acetylated α-tubulin-K25 for SIRT2, acetylated MnSOD-K122 for SIRT3, and succinylated CPS1-K537 for SIRT5 (Supplementary Table S3). […] Using Schrödinger molecular docking simulations, we assessed the binding interactions of SKLB-11A with SIRT isoforms.

The target in data set [3] is T2, SIRT3 (Rattus norvegicus, UniProt A0A8I5XWT5).
T2 construct: endogenous in cells; host or cells: H9c2
T2 sequence (A0A8I5XWT5 1-347): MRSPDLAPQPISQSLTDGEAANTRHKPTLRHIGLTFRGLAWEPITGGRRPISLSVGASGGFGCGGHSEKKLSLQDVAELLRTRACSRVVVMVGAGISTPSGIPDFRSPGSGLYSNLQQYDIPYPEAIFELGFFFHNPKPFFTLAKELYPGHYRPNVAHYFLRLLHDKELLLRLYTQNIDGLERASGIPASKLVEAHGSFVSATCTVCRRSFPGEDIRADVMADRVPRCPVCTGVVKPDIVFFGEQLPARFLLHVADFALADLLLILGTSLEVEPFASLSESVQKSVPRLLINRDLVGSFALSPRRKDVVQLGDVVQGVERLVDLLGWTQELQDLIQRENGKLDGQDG
Put plainly: CETSA of SIRT3 in H9c2 cells. The format is cell-based. The note with it: 10 μM, 6 h. The procedure: The Cellular Thermal Shift Assay (CETSA) leverages the principle of thermal stabilization of proteins upon ligand binding. H9c2 cells were seeded on 100 mm culture dishes and allowed to adhere for 12 h. Following attachment, cells were treated with SKLB-11A (10 μM) for 6 h, after which they were enzymatically detached using trypsin and harvested. The cell suspension was partitioned into seven equal aliquots, which were then exposed to a range of thermal conditions (37, 41, 45, 49, 53, 57, and 61 °C) for 3 min each. Post-thermal treatment, rapid freezing in liquid nitrogen was performed thrice to ensure cell lysis. The lysates were then subjected to centrifugation at 12,000 rpm for 20 min, and the levels of SIRT3 were analyzed via Western blotting.

In data set [4] the test system is Dox-induced cardiotoxicity model. Put plainly: Mouse model of doxorubicin-induced cardiomyopathy. Type of data set: in vivo. As for the experimental part: For the establishment of the experimental model, male C57BL/6J mice aged 8 weeks, with an average weight of 23 g, were utilized. The mice were administered varying dosages of SKLB-11A (10 and 20 mg/kg/day) or a corresponding volume of sterile saline via oral gavage over a period of 7 days. […] The sample size for each group consisted of eight specimens. Echocardiographic assessments were conducted at three distinct time points: baseline (day 0), post-treatment (day 7), and at the conclusion of the study (day 21). The experimental timeline was terminated on day 21.
Noninvasive transthoracic echocardiography was performed using a Vevo 3100 System with a 30-MHz transducer to assess cardiac function in mice. The procedure was conducted by an experienced technician who was blinded to the study groups. Mice were anesthetized with 1.5–2% isoflurane and underwent skin preparation. Two-dimensional guided M-mode echocardiography in the short axis view was used to measure left ventricular fractional shortening (FS) and left ventricular ejection fraction (EF).
H&E staining was used to evaluate pathological changes in key organs. Fixed tissues were dehydrated, embedded in paraffin, and sectioned into 4 μm slices. The sections were stained with hematoxylin for 10–15 min, washed with tap water for 2 min, differentiated for 30 s using hydrochloric acid and ethanol, and then washed with warm water for 5 min. After staining with eosin for 2 min, the sections were dehydrated and mounted with resin. All procedures followed the standard operating procedure (SOP) for pathological examination.

Consider `COC(=O)c1c(N)n(Cc2ccc(F)cc2)c2nc3ccccc3nc12` [SKLB-11A, Methyl 2-amino-1-(4-fluorobenzyl)-1H-pyrrolo[2,3-b]quinoxaline-3-carboxylate], for which the “protective effects on H9c2 cells compared to the positive control compounds” value in data set [1] (Dox-treated H9c2, MTT) is recorded as “slightly better protective effects”. Moreover, the viability at 10 µM in data set [1] (Rattus norvegicus, H9c2, 10 µM pretreatment 24 h, then 1 µM Dox 24 h, MTT, Model (Dox) = Dox alone, read-out: Cardiomyocyte survival rate at 10 uM (%)) worked out at 78.88 ± 0.65%. Besides, the “cardioprotective effects in H9c2 cells with reduced SIRT3 expression” value in data set [1] (SIRT3 knockdown by shRNA, cell viability) is recorded as “significantly diminished”. In data set [2], the “effect on basal SIRT1 deacetylation activity” value was “no statistically significant effects”. In data set [3], the “thermal stability of SIRT3 (CETSA)” value is reported as “effectively binds to SIRT3”. The “left ventricular ejection fraction (EF) and fractional shortening (FS)” value in data set [4] (10 or 20 mg/kg, ig, pretreatment, Dox mice, dose-dependent) is “significantly restored”. Further, in data set [4] (Dox mice), the “body weight (Dox-induced weight loss)” value is given as “partially reversed Dox-induced weight loss”; the “mitochondrial respiration (basal and maximal) in heart tissues” value was “restored mitochondrial respiration”; the “serum markers of myocardial injury LDH, CK-MB, BNP” value is “reduced serum markers of myocardial injury”. Moreover, the “myocardial structure, histology” value in data set [4] (Dox mice, H&E) was “preserved myocardial structure”. Also, the “toxicity at effective doses, organ histology (heart, liver, spleen, lungs, kidneys)” value in data set [4] (mice, H&E) is reported as “no apparent toxicity”.

The values are drawn from PMC12123458, “Unraveling Small Molecule-Mediated Sirtuin 3 Activation at a Distinct Binding Site for Cardioprotective Therapies” (ACS Central Science, 2025).
